Here are results for 1 compound from US6399313B1, “AMPA-binding human GluR2 receptors” (NPS Allelix Corp., priority 1992, dated 2002).

In the assay the target is T1, human GluR2B receptor (Homo sapiens, UniProt P42262).
T1 construct: transported to the cell surface in mature form, lacking the signal peptide and consisting of 862 amino acids; expressed in transfected cells; host or cells: COS-1 (ATCC CRL 1650), transient, plasmid pcDNA1/humGluR2B
Briefly: ligand binding assay (NMDA) with membranes of cells producing human GluR2B. Conditions: method for NMDA not described.

T1 sequence (P42262 25-883): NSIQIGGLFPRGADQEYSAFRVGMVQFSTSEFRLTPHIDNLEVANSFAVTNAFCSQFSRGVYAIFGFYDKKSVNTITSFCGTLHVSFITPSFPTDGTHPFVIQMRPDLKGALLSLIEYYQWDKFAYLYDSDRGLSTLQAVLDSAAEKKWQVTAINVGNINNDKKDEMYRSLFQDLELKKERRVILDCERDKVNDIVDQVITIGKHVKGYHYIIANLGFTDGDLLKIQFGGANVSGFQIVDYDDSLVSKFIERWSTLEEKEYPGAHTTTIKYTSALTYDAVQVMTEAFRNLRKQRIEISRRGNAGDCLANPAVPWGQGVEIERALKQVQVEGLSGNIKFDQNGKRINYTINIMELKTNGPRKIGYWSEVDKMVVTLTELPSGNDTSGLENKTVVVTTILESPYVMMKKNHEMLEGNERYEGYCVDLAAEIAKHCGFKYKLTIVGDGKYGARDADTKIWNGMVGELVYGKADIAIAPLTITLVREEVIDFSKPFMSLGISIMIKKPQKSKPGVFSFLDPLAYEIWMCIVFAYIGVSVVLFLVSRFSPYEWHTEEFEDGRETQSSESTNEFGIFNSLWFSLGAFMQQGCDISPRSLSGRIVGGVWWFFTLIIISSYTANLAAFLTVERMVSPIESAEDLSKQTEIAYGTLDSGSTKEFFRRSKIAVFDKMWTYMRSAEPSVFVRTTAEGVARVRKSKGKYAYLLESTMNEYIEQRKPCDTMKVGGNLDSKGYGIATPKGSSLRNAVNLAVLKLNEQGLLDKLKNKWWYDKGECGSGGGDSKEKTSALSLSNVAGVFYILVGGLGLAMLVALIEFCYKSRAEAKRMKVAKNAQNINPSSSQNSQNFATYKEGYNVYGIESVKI

For `CN[C@H](CC(=O)O)C(=O)O` [NMDA, N-methyl-D-aspartate], the “binding to human GluR2B receptor (in words)” value is “little or no demonstrable binding”.
